In one data set the test system is MDA-MB-231. As to the kind of experiment: Cell viability assay (PrestoBlue, 72 h), MDA-MB-231. The data set is classed as cell-based, human. The conditions noted are these: for viability at 10 µM / IC50: Homo sapiens; for viability at 10 µM: MDA-MB-231, 72 h, mean of at least two determinations, within ± 15%, read-out: Survival rate at 10 uM MDA-MB-231; for IC50: MDA-MB-231; for Activity toward TNBC cell lines (in words): TNBC cell lines MDA-MB-231, BT-549, MDA-MB-453. The method, then:
(§1) The cells were seeded in 384-well clear plates with a density of 8 × 10^2 cells/well for MCF-10A and BT-549 cell lines, 1 × 10^3 cells/well for MDA-MB-453, and 2 × 10^3 cells/well for MDA-MB-231 overnight. Then cells were treated with the indicated concentrations of test compounds for 72 h. At the end of incubation, 5 μL of PrestoBlue Cell Viability Reagent (Invitrogen, Carlsbad, CA, USA) was added to each well with 50 μL medium. The plates were incubated for an additional 1.5 h at 37 °C in a humidified 5% CO2 atmosphere; the relative fluorescence unit (RFU) in the reaction mixture will then be recorded (Ex560/Em590) by Victor^2-Vplate reader (PerkinElmer, Waltham, MA, USA). The cell lines were chosen based on the mutation status of PTEN and/or TP53: MCF-10A, the nonmalignant mammary epithelial cell line; BT-549 with mutation of PTEN and TP53; MDA-MB-453 with mutation of PTEN; MDA-MB-231 with mutation of TP53[47].

Data set [1] relates to MCF10A, a nonmalignant mammary epithelial cell line. In words: Cell viability assay (PrestoBlue, 72 h), MCF10A. In kind it is cell-based. As to conditions: for Survival rate at 10 uM MCF10A / MCF-10A Inhibition rate: human, 72 h, 10 µM. As for the experimental part:
as §1

A further data set relates to BT-549. In words: Cell viability assay (PrestoBlue, 72 h), BT-549. The data set is classed as cell-based. As to conditions: Homo sapiens; for viability at 10 µM: BT-549, 72 h, mean of at least two determinations, within ± 15%, read-out: Survival rate at 10 uM BT-549; for IC50: BT-549. The method, then:
as §1

The next data set deals with MDA-MB-453. As to the kind of experiment: Cell viability assay (PrestoBlue, 72 h), MDA-MB-453. The conditions noted are these: Homo sapiens; for viability at 10 µM: MDA-MB-453, 72 h, mean of at least two determinations, within ± 15%, read-out: Survival rate at 10 uM MDA-MB-453; for IC50: MDA-MB-453. The data set is classed as cell-based. The method, then: as §1
The target in the next data set is mu-opioid receptor (MOR) (Homo sapiens, UniProt P35372). As to the kind of experiment: FLIPR calcium assay in CHO-K1/MOR/Gα15 cells.
[2] abbreviates: Figure 3C, unit inferred, read-out: IC50 values MDA-MB-231.
Setting [3] is: Figure 3C, unit inferred, read-out: IC50 values BT-549.
[4] abbreviates: Figure 3C, unit inferred, read-out: IC50 values MDA-MB-453.
Where [5] appears, read: Figure 4B, read-out: MDA-MB-231 IC50.
[6] abbreviates: Figure 4B, read-out: BT-549 IC50.
Where [7] appears, read: Figure 4B, read-out: MDA-MB-453 IC50.

SMILES strings stand for the structures. Like-named read-outs stand apart in the source and are kept apart here.

The IC50 is the concentration that inhibits the measured activity by half. Usually EC50 stands for the concentration giving half of the maximal effect.

Chain of mu-opioid receptor (MOR) (P35372 whole entry): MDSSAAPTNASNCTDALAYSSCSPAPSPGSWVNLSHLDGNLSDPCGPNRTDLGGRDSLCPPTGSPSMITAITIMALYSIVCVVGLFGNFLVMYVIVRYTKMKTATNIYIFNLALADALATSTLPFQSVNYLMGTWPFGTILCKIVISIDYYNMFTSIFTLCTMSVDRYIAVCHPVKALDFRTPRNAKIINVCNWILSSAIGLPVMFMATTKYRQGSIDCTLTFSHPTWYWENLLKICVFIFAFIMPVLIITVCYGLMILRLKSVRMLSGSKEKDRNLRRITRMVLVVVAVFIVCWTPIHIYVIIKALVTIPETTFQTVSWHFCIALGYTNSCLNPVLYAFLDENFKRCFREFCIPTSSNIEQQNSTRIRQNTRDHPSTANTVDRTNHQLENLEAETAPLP

Regarding `O=C(N/N=C/c1ccccc1Cl)c1[nH]c2ccc(Cl)cc2c1-c1ccccc1` [Compound 1], the viability at 10 µM with MDA-MB-231 came out at 36%; in the data set with BT-549 it was 12%; in the data set with MDA-MB-453 it was 17%. In addition, the “Cytotoxicity to MCF10A (in words)” value in data set [1] is listed as “low cytotoxicity”. Also, in data set [1], the “Survival rate at 10 uM MCF10A” value was -7%.
The like results for `Nc1c(C(=O)c2ccccc2)sc2nc3c(cc12)CCCC3` [Compound 2] were, in that order, 34%, 16%, 15%, “low cytotoxicity” and -5%.
Turning to `Cc1cc(C)c(-c2csc(NC(=O)c3ccc(Br)cc3)n2)c(C)c1` [Compound 3], the viability at 10 µM in the data set on MDA-MB-231 is -14%; in the data set with BT-549, 101%; with MDA-MB-453, 21%. Besides, the IC50 is 1.49 µM in the data set on MDA-MB-231 (setting [2]), over 20 µM in the data set on BT-549 (setting [3]) and 5.19 µM in the data set with MDA-MB-453 (setting [4]). Further, in the data set on MDA-MB-231, the “Activity toward TNBC cell lines (in words)” value is “broader TNBC inhibitions”. Besides, the “Cytotoxicity to MCF10A (in words)” value in data set [1] is “low cytotoxicity”. Moreover, in data set [1], the “Survival rate at 10 uM MCF10A” value is reported as 44%.
`Cc1ccc(-c2csc(NC(=O)c3ccc(F)cc3)n2)c(C)c1` [Compound 4]: the viability at 10 µM in the data set with MDA-MB-231 was 35%; with BT-549, 106%; in the data set on MDA-MB-453, 53%. The “Cytotoxicity to MCF10A (in words)” value in data set [1] is reported as “low cytotoxicity”. The “Survival rate at 10 uM MCF10A” value in data set [1] amounted to 101%.
`CCN(C(=O)c1sc(NC(=O)CCl)c(C#N)c1C)C1CCCCC1` [Compound 5]: the viability at 10 µM is -12% in the data set on MDA-MB-231, 10% in the data set on BT-549 and -16% with MDA-MB-453. Besides, the “Cytotoxicity to MCF10A (in words)” value in data set [1] was “low cytotoxicity”. Moreover, the “Survival rate at 10 uM MCF10A” value in data set [1] is 16%.
The like results for `Cn1ncc(Cl)c1C(=O)Nc1ccc2nc(NC(=O)C3CCCCC3)sc2c1` [Compound 6] were, in that order, 33%, 22%, 19%, “low cytotoxicity” and 6%.
For the compound `CCN(CC)S(=O)(=O)c1ccc(C(=O)Nc2nc(-c3ccc(Cl)c(Cl)c3)cs2)cc1` [Compound 7], the viability at 10 µM in the data set with MDA-MB-231 came out at 6%; with BT-549 it was 54%; in the data set on MDA-MB-453, 29%. Further, the IC50 with MDA-MB-231 (setting [2]) is 2.52 µM; with BT-549 (setting [3]), over 20 µM; with MDA-MB-453 (setting [4]), over 20 µM. In addition, the “Activity toward TNBC cell lines (in words)” value in the data set with MDA-MB-231 was “broader TNBC inhibitions”. For the same compound, in data set [1], the “Cytotoxicity to MCF10A (in words)” value is listed as “low cytotoxicity”. In data set [1], the “Survival rate at 10 uM MCF10A” value worked out at 117%.
Turning to `O=C(c1ccc(Oc2ccc([N+](=O)[O-])cc2)cc1)c1ccc(Oc2ccc([N+](=O)[O-])cc2)cc1` [Compound 8], the viability at 10 µM with MDA-MB-231 is 22%; with BT-549, 88%; in the data set on MDA-MB-453, 47%. The IC50 is 10.7 µM in the data set on MDA-MB-231 (setting [2]), over 20 µM in the data set on BT-549 (setting [3]) and over 20 µM in the data set with MDA-MB-453 (setting [4]). Further, in the data set on MDA-MB-231, the “Activity toward TNBC cell lines (in words)” value is given as “broader TNBC inhibitions”.
With `Cc1cccc(C(=O)Nc2nc(-c3cc(C)ccc3C)cs2)c1` [Compound 9], the results for the viability at 10 µM in the data set with MDA-MB-231, in the data set on BT-549 and with MDA-MB-453 were 51%, 79% and 54%, respectively. In addition, in data set [1], the “Cytotoxicity to MCF10A (in words)” value is “low cytotoxicity”. Further, the “Survival rate at 10 uM MCF10A” value in data set [1] worked out at 105%.
Turning to `Cc1cc(C)c(C)c(-c2csc(NC(=O)c3cc([N+](=O)[O-])cc([N+](=O)[O-])c3)n2)c1C` [Compound 10], the viability at 10 µM in the data set on MDA-MB-231 came to 21%; with BT-549 it was 52%; in the data set on MDA-MB-453 it was 25%. Further, the figures for the half-maximal inhibitory concentration (IC50) in the data set on MDA-MB-231 (setting [2]), with BT-549 (setting [3]) and with MDA-MB-453 (setting [4]) were 8.4 µM, 7.68 µM and over 20 µM, respectively. Also, the “Activity toward TNBC cell lines (in words)” value in the data set on MDA-MB-231 is on record as “broader TNBC inhibitions”.
`O=C(N/N=C/c1ccc(Br)cc1)c1cc2ccccc2[nH]1` [Compound 11]: the viability at 10 µM in the data set on MDA-MB-231 was found to be 56%; in the data set with BT-549, 26%; in the data set on MDA-MB-453 it was 29%. The “Cytotoxicity to MCF10A (in words)” value in data set [1] is “low cytotoxicity”. For the same compound, the “Survival rate at 10 uM MCF10A” value in data set [1] was 18%.
In the same order, the values of `COC(=O)Nc1nc2ccc(C(=O)c3ccccc3)cc2[nH]1` [Compound 12] are 35%, 17%, 22%, “low cytotoxicity” and 13%.
As for `Cc1ccc(-c2csc(NC(=O)c3ccc(F)cc3)n2)c(C)c1` [Compound 15], the results for the IC50 in the data set with MDA-MB-231 (setting [5]), with BT-549 (setting [6]) and in the data set with MDA-MB-453 (setting [7]) were 1.89 µM, over 10 µM and 9.28 µM, respectively. Also, the “MCF-10A Inhibition rate” value in data set [1] is -8%.
`COc1ccc(C(=O)Nc2nc(-c3ccc(C)cc3C)cs2)cc1` [Compound 16]: the IC50 was 1.4 µM with MDA-MB-231 (setting [5]), over 10 µM with BT-549 (setting [6]) and 6.3 µM in the data set with MDA-MB-453 (setting [7]). The “MCF-10A Inhibition rate” value in data set [1] is 8%.
For `COC(=O)c1ccc(C(=O)Nc2nc(-c3ccc(C)cc3C)cs2)cc1` [Compound 18], the IC50 with MDA-MB-231 (setting [5]) was 0.62 µM; in the data set with BT-549 (setting [6]) it was over 10 µM; in the data set on MDA-MB-453 (setting [7]) it was over 10 µM. For the same compound, the “MCF-10A Inhibition rate” value in data set [1] was found to be 4%. In data set [1] (versus MDA-MB-231), the “Selectivity over nonmalignant mammary epithelial cell (in words)” value is reported as “good selectivity”.
Take `Cc1ccc(-c2csc(NC(=O)c3ccsc3)n2)c(C)c1` [Compound 19]: the IC50 is 2.68 µM with MDA-MB-231 (setting [5]), over 10 µM with BT-549 (setting [6]) and over 10 µM in the data set with MDA-MB-453 (setting [7]). Also, the “MCF-10A Inhibition rate” value in data set [1] was 14%.
As to `Cc1ccc(-c2csc(NC(=O)c3cc(C)on3)n2)c(C)c1` [Compound 20], the half-inhibitory concentration (IC50) in the data set with MDA-MB-231 (setting [5]), with BT-549 (setting [6]) and with MDA-MB-453 (setting [7]) was over 10 µM in each case. Moreover, the “MCF-10A Inhibition rate” value in data set [1] is recorded as 14%.
For `O=C(Nc1ncc(-c2ccncc2)s1)c1ccc(F)cc1` [Compound 22], the IC50 with MDA-MB-231 (setting [5]), in the data set on BT-549 (setting [6]) and with MDA-MB-453 (setting [7]) was over 10 µM throughout. In addition, in the data set on MDA-MB-231, the “Activity toward TNBC cell lines (in words)” value was “did not show activities”. Further, the “MCF-10A Inhibition rate” value in data set [1] is given as -5%.
For the compound `COc1ccc(C(=O)Nc2ncc(-c3ccncc3)s2)cc1` [Compound 23], the concentration for half-maximal inhibition (IC50) was determined as 3.98 µM in the data set with MDA-MB-231 (setting [5]), 2.6 µM with BT-549 (setting [6]) and 7.93 µM with MDA-MB-453 (setting [7]). Further, the “Activity toward TNBC cell lines (in words)” value in the data set with MDA-MB-231 was “moderate micro molar activities”. Besides, in data set [1], the “Cytotoxicity to MCF10A (in words)” value is reported as “exhibited cytotoxicity”. Further, the “MCF-10A Inhibition rate” value in data set [1] came out at 35%.
Consider `CN(CCNC(=O)c1ccc(C(=O)NCCN(C)Cc2ccccc2)cc1)Cc1ccccc1` [Compound 24], for which, on mu-opioid receptor (MOR), the concentration giving a half-maximal response (EC50) was 5.71 µM.
Still for that read-out and setting: the same measure for `Cc1ccc2c(Cl)c(C(=O)NCC(c3ccccc3Cl)N(C)C)sc2c1` (stereo not shown) [Compound 25]: 6.12 µM; for `O=C(Nc1ccc(S(=O)(=O)NC2CCCCC2)cc1)C1CCCCC1` [Compound 26]: 0.56 µM; for `Cc1ccc(C(=O)Nc2cnc3ccccc3c2)cc1C` [Compound 27]: 4.32 µM.
The same measure, in the same setting: the figure for `Cc1cc(N2CCN(C)CC2)nc(N2CCN(C(=O)c3ccc(C)c(C)c3)CC2)n1` [Compound 28] is 8.05 µM.

The values above are taken from article PMC7545175 (Scientific Reports, 2020).
